Laboratory results: patent US20250319206A1, “CRISPR/CAS GENE EDITING OF NEH4 AND/OR NEH5 DOMAINS IN NRF2” (Christina Care Gene Editing Institute, Inc., priority 2024, published 2025)

What was measured:
[1] = test system: NRF2; assay: NRF2 protein analysis by western blot in FaDu cells; format: cell-based, Human; details: 72-hour timepoint, relative to GapDH, normalized to wild-type
Protocol: Total protein was isolated from cells in RIPA buffer (Pierce), incubated on ice for 30 minutes with vortexing every 10 minutes. Samples were centrifuged at 14,000×G at 4° C. for 15 minutes and the supernatant was saved. Protein extracts were quantified using a BCA assay (Pierce) and 20 μg of protein was loaded onto a Biorad 4-20% polyacrylamide pre-cast gel (Biorad). Protein was transferred onto a […] nitrocellulose blot using the Turboblot dry transfer system (Biorad). The membrane was blocked in 5% milk in TBS-T for 2 hours at room temperature and stained with anti-NRF2 1:1000 (Abcam, ab62352) and anti-GAPDH 1:5,000 (Cell Signaling Technology, 97166). Blots were washed 3× at room temperature in TBS-T and stained with secondary antibodies conjugated to HRP 1:10,000 (Abcam, ab205718 or Thermofisher, PI31430). Blots were imaged using the Pierce Femto western blotting substrate (Pierce). Bands were quantified using the FIJI gel analysis tool package.

[2] = test system: NRF2 gene; assay: Exon skipping analysis of NRF2 cDNA in FaDu and KYSE-410 cells; format: cell-based, Human; details: 72 hours post-transfection, cDNA PCR 5′UTR to exon 5
Protocol: Total RNA was isolated from edited cells using TRIzol reagent and PureLink RNA Mini Kit (Thermo Fisher Scientific, Waltham, MA). Reverse transcription was conducted using the Applied Biosystems High-Capacity RNA-to-cDNA kit (Thermo Fisher Scientific, Waltham, MA). The cDNA was used as the template for PCR amplification with either Phusion Flash or Phusion High-Fidelity PCR master mix (Thermo Fisher Scientific, Waltham, MA) with primers spanning the 5′UTR region through Exon 5 (798 bp) of the NRF2 gene. PCR reactions were purified using Qiagen Qiaquick PCR cleanup columns (Quiagen, Hilden, Germany) according to manufacturer's protocol, measured on a Nanodrop and equally loaded on a 1% agarose gel.
The difference between targeting exon 2 and exon 4 was intriguing, so we wanted to see if a molecular rearrangement, exon skipping, which we had identified previously within the NRF2 gene was at least in part responsible for this difference^33. Since we know NRF2 exon 2 and exon 4 are disrupted by design, and intra-genic changes are the objective of the experiment, we asked if exon skipping could account for the differential response in targeting exon 2 versus exon 4. FIG. 14A represents the potential exon skipping outcomes. For both the FADU and the KYSE-410 cells, at 72 hours post-transfection RNA was converted to cDNA followed by PCR amplification of the NRF2 cDNA (798 bp) spanning the 5′UTR to exon 5. […] The 798 bp is the full transcript while the lower band for sg3 is 531 bp and sg76 is 606 bp, the expected sizes of the removal of exon 2 (267 bp) and exon 4 (192 bp).

[3] = test system: T98G cells; assay: Chemosensitivity testing, CellTiter-Glo 2.0, T98G cells; format: cell-based, human; details: increasing concentrations of temozolomide and doxorubicin, 72 hr
Description: FIG. 5A-D: Glioblastoma cells targeting exon 4 of NRF2 and assessment of chemotherapy response. T98G cells (FIG. 5A) and LN229 cells (FIG. 5B) were transfected with each respective gRNA. Genomic DNA from each cell population was isolated and amplified across exon 4 of the NRF2 gene. Amplicons were sanger sequenced and analyzed for indels at the CRISPR target site. Raw sequence files were aligned using the software program, DECODR, to display the indel pattern (listed as INDEL and frameshift %). (FIG. 5C-D) Chemosensitivity Testing in response to NRF2 targeting. Chemosensitivity was measured via CellTiter-Glo® 2.0 Assay. Untargeted and CRISPR targeted T98G cells were treated with increasing concentrations of (FIG. 5C) temozolomide or (FIG. 5D) doxorubicin for 72 hr. and then evaluated for cell viability. The average relative viability of cells normalized to the untreated Wt. was graphed. The error bars represent % CV.
Two human glioblastoma-derived cell lines were used to assess CRISPR activity and downstream effects of NRF2 knockout. FIG. 5 compares targeting exon 4 by two sgRNAs (sg76 (SEQ ID NO:16) and sg83 (SEQ ID NO:24)) and chemosensitivity assessment after targeting in both glioblastoma T98G and LN229 cell lines. Both cell lines were transfected using CRISPRmax lipofection with each respective gRNA and Cas9 mRNA. […]

[4] = test system: FaDu cells; details: for viability after a single dose of Cisplatin: exon 4 edited, cisplatin 72 hours; for sensitivity to cisplatin: exon 4 targeting
[5] = test system: NRF2 downstream target genes (NQO1, HMOX1, GCLC); assay: qPCR gene expression analysis of NRF2 and downstream targets in KYSE-410 cells; format: cell-based, Human; details: for NQO1 expression (qPCR): vs wildtype unedited cells, without cisplatin exposure
Protocol: Total RNA was isolated from edited cells using TRIzol reagent and PureLink RNA Mini Kit (Thermo Fisher Scientific, Waltham, MA). Reverse transcription was conducted using the Applied Biosystems High-Capacity RNA-to-cDNA kit (Thermo Fisher Scientific, Waltham, MA). The cDNA was used as the template in the qPCR amplification of GAPDH (Fwd 5′ […]3′ (SEQ ID NO:76), Rev 5′[…]3′ (SEQ ID NO:77)), NRF2 (Fwd 5′[…]3′ (SEQ ID NO:78), Rev 5′[…]3′ (SEQ ID NO:79)), NQO1 (Fwd 5′[…]3′ (SEQ ID NO:80), Rev 5′[…]3′ (SEQ ID NO:81)), HMOX1 (Fwd 5′ […]3′ (SEQ ID NO:82), Rev 5′[…]3′ (SEQ ID NO:83)) and GCLC (Fwd 5′[…]3′ (SEQ ID NO:84), Rev 5′ […]3′ (SEQ ID NO:85)) transcripts using the SsoAdvanced universal SYBR Green Supermix (BioRad, Hercules, CA). The experiment was conducted at least twice with all samples run in duplicate at minimum. Relative expression levels of mRNA were calculated using the Livak method and normalized to the control. The data was plotted with the coefficient of variance.
For all gene editing studies from bench to bedside, it is important to employ a functional assay, accompanied by an internal functional control, to assess the efficiency of CRISPR/Cas activity. In this case, NRF2 is a transcription factor that controls the expression of over 200 genes. Thus, NRF2 disruption can be measured functionally through qPCR analysis of NQO1 expression, a keystone gene controlled by NRF2. NQO1 has been used as a standard measure of NRF2 activity in cancer cells^40. We also use downstream targets HMOX1 and GCLC, two major antioxidant enzymes, to assess NRF2 function.

| Substance | NRF2 protein knock down [1] [%] | exon skipping [2] | sensitivity to treatment [3] | viability after a single dose of Cisplatin [4] | sensitivity to cisplatin [4] | NQO1 and GCLC expression ([5]; vs exon 2 (sg3) or exon 4 (sg76) targeted cells) | NQO1 expression (qPCR) [5] |
| --- | --- | --- | --- | --- | --- | --- | --- |
| sg3: gRNA targeting the DLG motif in exon 2 of NRF2; 5′-TATTTGACTTCAGTCAGCGA-3′ or TGGAGGCAAGATATAGATCT (further chemistry not given here) [reference compound] | 30 | second lower band indicative of an exon skipping event |  |  |  |  |  |
| sg83: gRNA targeting exon 4 of NRF2; GTAGCCCCTGTTGATTTAGA CGG (guide GTAGCCCCTGTTGATTTAGACGG; listed as DNA, chemistry not given here) | 90 | some level of exon skipping activity is detected but at much lower rate | increased sensitivity to treatment | significant reduction in viability | enhanced sensitivity to cisplatin | lower levels of NQO1 and GCLC expression | significantly decreased |
| sg76: gRNA targeting exon 4 of NRF2; TCACTTGTTCCTGATATTCC CGG (guide TCACTTGTTCCTGATATTCCCGG; listed as DNA, chemistry not given here) | 90 | second lower band indicative of an exon skipping event | increased sensitivity to treatment | significant reduction in viability | enhanced sensitivity to cisplatin |  | significantly decreased |
